One block for each compound: values may come before it.
How the values were obtained:
Assay in all cases: Competitive isoTOP-ABPP, cell lysates
Type in all cases: binding
USP16 C205 (Q9Y5T5) = USP16 C205 (Q9Y5T5) (Homo sapiens, UniProt Q9Y5T5)
USP48 C39 (Q86UV5) = target: T1, USP48 C39 (Q86UV5) (Homo sapiens, UniProt Q86UV5)
T1 sequence (Q86UV5 1-1035): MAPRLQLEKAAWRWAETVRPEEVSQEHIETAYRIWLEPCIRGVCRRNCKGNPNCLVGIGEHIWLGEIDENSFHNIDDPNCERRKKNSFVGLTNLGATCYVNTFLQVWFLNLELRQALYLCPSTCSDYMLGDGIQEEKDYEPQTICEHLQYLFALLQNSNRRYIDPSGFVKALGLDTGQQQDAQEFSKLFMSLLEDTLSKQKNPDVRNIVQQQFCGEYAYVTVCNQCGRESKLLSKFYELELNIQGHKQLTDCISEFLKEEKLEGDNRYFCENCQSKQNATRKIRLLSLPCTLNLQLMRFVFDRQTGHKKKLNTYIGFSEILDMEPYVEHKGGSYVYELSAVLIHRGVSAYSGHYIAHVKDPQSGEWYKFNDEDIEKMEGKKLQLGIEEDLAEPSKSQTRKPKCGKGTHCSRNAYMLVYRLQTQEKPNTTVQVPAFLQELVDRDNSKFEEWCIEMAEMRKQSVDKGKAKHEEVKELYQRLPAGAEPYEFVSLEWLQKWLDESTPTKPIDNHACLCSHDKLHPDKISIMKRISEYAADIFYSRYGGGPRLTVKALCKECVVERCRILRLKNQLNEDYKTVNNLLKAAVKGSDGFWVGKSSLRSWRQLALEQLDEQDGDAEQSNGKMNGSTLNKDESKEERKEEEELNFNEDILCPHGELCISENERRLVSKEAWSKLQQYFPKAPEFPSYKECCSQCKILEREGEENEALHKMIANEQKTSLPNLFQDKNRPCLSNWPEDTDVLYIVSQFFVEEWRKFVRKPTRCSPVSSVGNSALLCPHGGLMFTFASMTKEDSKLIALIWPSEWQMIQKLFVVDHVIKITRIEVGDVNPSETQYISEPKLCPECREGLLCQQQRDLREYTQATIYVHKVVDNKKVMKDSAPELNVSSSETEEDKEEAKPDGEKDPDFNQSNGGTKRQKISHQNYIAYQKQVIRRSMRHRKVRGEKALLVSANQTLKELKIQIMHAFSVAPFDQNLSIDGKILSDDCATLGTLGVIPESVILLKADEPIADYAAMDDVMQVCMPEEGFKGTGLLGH

LRBA C1704 (P50851) = LRBA C1704 (P50851) (Homo sapiens, UniProt P50851)
CYR61 C39 (O00622) = target: T2, CYR61 C39 (O00622) (Homo sapiens, UniProt O00622); conditions: for R value (DMSO/fragment): in vitro, MDA-MB-231; for isoTOP-ABPP ratio, O00622_C39: invitro, 231; for isoTOP-ABPP ratio (reactivity profile), O00622_C39: 500 μm in-vitro ramos_231
T2 sequence (O00622 25-381): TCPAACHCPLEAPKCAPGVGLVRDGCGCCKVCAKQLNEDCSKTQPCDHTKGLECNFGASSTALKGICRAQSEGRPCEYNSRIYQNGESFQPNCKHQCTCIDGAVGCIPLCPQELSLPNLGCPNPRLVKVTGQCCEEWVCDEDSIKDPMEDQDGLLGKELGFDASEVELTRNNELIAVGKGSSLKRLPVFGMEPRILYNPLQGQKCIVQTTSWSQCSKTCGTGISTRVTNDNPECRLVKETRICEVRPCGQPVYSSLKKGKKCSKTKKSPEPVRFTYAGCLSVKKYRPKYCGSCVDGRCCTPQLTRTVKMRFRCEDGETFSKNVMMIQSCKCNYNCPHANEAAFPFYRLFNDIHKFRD

PFKFB4 C159 (Q16877) = PFKFB4 C159 (Q16877) (Homo sapiens, UniProt Q16877); conditions: for isoTOP-ABPP ratio (reactivity profile), Q16877_C159: 500 μm in-vitro ramos
Chain of PFKFB4 C159 (Q16877) (Q16877 whole entry): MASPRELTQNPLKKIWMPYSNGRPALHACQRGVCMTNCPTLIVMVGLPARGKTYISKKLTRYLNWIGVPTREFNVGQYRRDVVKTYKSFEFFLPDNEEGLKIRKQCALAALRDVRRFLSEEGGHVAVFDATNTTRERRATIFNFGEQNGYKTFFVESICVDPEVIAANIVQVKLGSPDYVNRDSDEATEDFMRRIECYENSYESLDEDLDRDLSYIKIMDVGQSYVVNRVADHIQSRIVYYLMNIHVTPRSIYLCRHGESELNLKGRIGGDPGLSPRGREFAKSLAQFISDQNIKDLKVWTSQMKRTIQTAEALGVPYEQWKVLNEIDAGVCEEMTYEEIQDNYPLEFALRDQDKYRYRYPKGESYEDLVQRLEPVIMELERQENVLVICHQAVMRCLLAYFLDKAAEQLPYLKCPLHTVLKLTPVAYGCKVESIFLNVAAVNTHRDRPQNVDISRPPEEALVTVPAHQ

Chain of USP16 C205 (Q9Y5T5) (Q9Y5T5 whole entry): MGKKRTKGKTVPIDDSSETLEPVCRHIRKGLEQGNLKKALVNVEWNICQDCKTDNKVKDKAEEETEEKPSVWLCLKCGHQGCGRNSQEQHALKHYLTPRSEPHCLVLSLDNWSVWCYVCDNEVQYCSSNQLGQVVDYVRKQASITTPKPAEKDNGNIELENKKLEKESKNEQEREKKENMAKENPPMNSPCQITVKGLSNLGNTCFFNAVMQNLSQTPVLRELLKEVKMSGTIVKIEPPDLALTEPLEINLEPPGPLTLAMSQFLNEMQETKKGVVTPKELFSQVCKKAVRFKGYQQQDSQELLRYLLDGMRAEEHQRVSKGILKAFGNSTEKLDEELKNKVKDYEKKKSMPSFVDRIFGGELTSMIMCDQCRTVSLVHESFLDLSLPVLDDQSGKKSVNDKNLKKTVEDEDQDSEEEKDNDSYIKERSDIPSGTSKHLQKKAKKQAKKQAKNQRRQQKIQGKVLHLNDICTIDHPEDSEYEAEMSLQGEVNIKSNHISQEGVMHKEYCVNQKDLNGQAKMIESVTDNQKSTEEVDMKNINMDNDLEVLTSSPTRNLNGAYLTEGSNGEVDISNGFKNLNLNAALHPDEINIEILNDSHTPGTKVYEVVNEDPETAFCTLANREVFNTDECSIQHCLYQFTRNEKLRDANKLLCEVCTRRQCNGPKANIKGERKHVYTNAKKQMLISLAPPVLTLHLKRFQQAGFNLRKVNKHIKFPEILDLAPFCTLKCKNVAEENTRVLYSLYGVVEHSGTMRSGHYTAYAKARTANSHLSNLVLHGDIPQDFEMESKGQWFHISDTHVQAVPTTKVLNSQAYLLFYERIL
Chain of LRBA C1704 (P50851) (P50851 whole entry, the tested form may be a part): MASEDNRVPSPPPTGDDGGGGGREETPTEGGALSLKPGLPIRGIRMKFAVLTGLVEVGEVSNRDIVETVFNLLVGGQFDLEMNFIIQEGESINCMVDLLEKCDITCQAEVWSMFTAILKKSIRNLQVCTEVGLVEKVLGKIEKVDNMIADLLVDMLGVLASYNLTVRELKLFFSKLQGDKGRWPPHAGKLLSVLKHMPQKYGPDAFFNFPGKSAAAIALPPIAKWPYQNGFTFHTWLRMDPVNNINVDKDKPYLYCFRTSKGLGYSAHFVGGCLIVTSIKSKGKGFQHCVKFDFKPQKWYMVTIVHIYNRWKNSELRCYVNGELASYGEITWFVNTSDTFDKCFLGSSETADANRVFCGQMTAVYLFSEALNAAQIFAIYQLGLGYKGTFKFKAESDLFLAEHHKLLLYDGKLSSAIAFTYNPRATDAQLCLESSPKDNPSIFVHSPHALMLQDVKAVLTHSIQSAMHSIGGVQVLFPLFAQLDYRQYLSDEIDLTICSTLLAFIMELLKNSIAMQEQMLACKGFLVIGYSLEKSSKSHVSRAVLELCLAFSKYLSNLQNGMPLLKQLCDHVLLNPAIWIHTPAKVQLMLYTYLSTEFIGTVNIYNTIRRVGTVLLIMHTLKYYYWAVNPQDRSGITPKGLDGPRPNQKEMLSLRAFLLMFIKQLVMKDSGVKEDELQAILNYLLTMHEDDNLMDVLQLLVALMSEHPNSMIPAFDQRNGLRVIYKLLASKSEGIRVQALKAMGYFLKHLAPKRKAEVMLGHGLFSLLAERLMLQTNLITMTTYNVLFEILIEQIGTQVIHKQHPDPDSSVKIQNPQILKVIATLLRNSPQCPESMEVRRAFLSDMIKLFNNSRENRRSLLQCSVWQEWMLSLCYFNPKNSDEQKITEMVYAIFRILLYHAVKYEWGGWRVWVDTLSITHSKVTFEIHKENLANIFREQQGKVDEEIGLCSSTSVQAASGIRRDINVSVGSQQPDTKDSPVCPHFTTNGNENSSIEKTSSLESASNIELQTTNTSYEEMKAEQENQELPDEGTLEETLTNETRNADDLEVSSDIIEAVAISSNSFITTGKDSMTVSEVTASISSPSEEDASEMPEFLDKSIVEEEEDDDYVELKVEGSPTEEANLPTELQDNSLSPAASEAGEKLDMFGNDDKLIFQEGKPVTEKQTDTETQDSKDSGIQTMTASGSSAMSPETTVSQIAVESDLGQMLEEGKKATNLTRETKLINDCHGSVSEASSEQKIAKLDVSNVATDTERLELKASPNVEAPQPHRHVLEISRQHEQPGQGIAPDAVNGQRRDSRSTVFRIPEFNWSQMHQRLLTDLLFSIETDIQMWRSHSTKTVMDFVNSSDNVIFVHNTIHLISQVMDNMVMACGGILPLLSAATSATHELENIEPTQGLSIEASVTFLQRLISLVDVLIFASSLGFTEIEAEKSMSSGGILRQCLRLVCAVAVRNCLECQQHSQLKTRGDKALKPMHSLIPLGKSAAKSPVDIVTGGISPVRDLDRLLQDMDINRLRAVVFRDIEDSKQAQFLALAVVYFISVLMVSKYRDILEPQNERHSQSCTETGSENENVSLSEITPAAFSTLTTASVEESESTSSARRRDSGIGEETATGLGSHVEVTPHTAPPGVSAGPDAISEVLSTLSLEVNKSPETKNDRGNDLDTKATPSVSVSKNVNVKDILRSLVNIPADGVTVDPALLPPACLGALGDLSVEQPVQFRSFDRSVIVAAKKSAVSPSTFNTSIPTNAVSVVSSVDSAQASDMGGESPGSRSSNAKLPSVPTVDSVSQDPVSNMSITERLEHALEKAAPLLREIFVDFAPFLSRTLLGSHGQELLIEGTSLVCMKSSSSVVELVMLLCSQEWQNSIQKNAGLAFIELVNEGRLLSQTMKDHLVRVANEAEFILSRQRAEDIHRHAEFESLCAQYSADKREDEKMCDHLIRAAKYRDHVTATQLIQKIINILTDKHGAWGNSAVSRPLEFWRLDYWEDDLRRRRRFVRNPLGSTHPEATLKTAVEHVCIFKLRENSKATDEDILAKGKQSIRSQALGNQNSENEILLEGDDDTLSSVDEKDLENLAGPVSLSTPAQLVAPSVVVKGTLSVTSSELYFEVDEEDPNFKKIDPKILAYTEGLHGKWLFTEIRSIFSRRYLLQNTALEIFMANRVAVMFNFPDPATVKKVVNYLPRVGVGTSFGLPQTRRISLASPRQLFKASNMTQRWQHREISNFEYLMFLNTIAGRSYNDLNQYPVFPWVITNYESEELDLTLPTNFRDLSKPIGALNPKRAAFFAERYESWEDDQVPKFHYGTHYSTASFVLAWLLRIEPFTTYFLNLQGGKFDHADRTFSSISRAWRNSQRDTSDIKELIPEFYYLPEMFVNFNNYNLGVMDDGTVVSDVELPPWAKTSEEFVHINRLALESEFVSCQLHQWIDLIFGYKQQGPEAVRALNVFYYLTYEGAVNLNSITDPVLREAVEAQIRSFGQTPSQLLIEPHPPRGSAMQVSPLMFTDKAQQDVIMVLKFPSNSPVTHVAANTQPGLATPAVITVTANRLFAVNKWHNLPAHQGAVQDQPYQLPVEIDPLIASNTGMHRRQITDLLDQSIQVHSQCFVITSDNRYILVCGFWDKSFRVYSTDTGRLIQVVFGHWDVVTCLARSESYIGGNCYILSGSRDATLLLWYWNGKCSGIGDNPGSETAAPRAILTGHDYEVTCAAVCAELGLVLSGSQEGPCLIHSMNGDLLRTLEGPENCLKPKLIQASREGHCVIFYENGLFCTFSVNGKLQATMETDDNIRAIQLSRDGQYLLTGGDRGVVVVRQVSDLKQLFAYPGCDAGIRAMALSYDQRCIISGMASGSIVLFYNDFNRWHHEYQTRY

SMILES: COc1ccc(C2CC(c3cccs3)=NN2C(=O)CCl)cc1 (stereo not drawn) [compound 4]
R value (DMSO/fragment) (USP16 C205 (Q9Y5T5); 250 μM, in vitro, Ramos): 20.0
R value (DMSO/fragment) (CYR61 C39 (O00622); 250 μM): 2.8
R value (DMSO/fragment) (PFKFB4 C159 (Q16877); 250 μM, in vitro, MDA-MB-231): 1.4
R value (DMSO/fragment) (USP48 C39 (Q86UV5); 250 μM, in vitro, MDA-MB-231): 1.4
R value (DMSO/fragment) (USP48 C39 (Q86UV5); 250 μM, in vitro, Ramos): 1.4
R value (DMSO/fragment) (LRBA C1704 (P50851); 250 μM, in vitro, Ramos): 1.5

SMILES: C=CC(=O)N(c1ccccc1)c1ccc(Br)cc1 [compound 5]
isoTOP-ABPP ratio, Q9Y5T5_C205 (USP16 C205 (Q9Y5T5); 500 μM, invitro, ramos): 1.1
isoTOP-ABPP ratio, Q16877_C159 (PFKFB4 C159 (Q16877); 500 μM, invitro, ramos): 20.0
isoTOP-ABPP ratio, Q86UV5_C39 (USP48 C39 (Q86UV5); 500 μM, invitro, ramos): 1.2
isoTOP-ABPP ratio, P50851_C1704 (LRBA C1704 (P50851); 500 μM, invitro, ramos): 3.6

SMILES: O=C(CCl)N1CCN(S(=O)(=O)c2ccccc2F)CC1 [compound 10]
isoTOP-ABPP ratio, Q16877_C159 (PFKFB4 C159 (Q16877); 500 μM, invitro, 231): 1.2
isoTOP-ABPP ratio, Q86UV5_C39 (USP48 C39 (Q86UV5); 500 μM, invitro, 231): 2.5
isoTOP-ABPP ratio, P50851_C1704 (LRBA C1704 (P50851); 500 μM, invitro, ramos): 0.8

SMILES: Cn1cc(S(=O)(=O)N2CCOCC2)cc1C(=O)NC(=O)CCl [compound 11]
isoTOP-ABPP ratio, Q9Y5T5_C205 (USP16 C205 (Q9Y5T5); 500 μM, invitro, 231): 20.0
isoTOP-ABPP ratio, O00622_C39 (CYR61 C39 (O00622); 500 μM): 9.6
isoTOP-ABPP ratio, Q16877_C159 (PFKFB4 C159 (Q16877); 500 μM, invitro, ramos): 0.6
isoTOP-ABPP ratio, Q86UV5_C39 (USP48 C39 (Q86UV5); 500 μM, invitro, ramos): 1.0
isoTOP-ABPP ratio, P50851_C1704 (LRBA C1704 (P50851); 500 μM, invitro, ramos): 1.4

SMILES: O=C(CCl)NC(=O)NC12CC3CC(CC(C3)C1)C2 [compound 12]
isoTOP-ABPP ratio, Q9Y5T5_C205 (USP16 C205 (Q9Y5T5); 500 μM, invitro, 231): 2.2

SMILES: O=C(CCl)NCCc1c[nH]c2ccccc12 [compound 13]
isoTOP-ABPP ratio, Q9Y5T5_C205 (USP16 C205 (Q9Y5T5); 500 μM, invitro, ramos): 3.3
isoTOP-ABPP ratio, O00622_C39 (CYR61 C39 (O00622); 500 μM): 1.2
isoTOP-ABPP ratio, Q16877_C159 (PFKFB4 C159 (Q16877); 500 μM, invitro, 231): 0.9
isoTOP-ABPP ratio, Q86UV5_C39 (USP48 C39 (Q86UV5); 500 μM, invitro, 231): 0.8
isoTOP-ABPP ratio, Q86UV5_C39 (USP48 C39 (Q86UV5); 500 μM, invitro, ramos): 0.6
isoTOP-ABPP ratio, P50851_C1704 (LRBA C1704 (P50851); 500 μM, invitro, 231): 0.7
isoTOP-ABPP ratio, P50851_C1704 (LRBA C1704 (P50851); 500 μM, invitro, ramos): 0.8

SMILES: O=C(CCl)N1CCC(C(O)(c2ccccc2)c2ccccc2)CC1 [compound 20]
isoTOP-ABPP ratio (reactivity profile), Q16877_C159 (PFKFB4 C159 (Q16877)): 1.0
isoTOP-ABPP ratio (reactivity profile), Q86UV5_C39 (USP48 C39 (Q86UV5); 500 μm in-vitro ramos): 1.8
isoTOP-ABPP ratio (reactivity profile), Q86UV5_C39 (USP48 C39 (Q86UV5); 500 μm in-vitro ramos_231): 1.1
isoTOP-ABPP ratio (reactivity profile), P50851_C1704 (LRBA C1704 (P50851); 500 μm in-vitro ramos): 1.7
isoTOP-ABPP ratio (reactivity profile), P50851_C1704 (LRBA C1704 (P50851); 500 μm in-vitro ramos_231): 2.0

SMILES: O=C(CCl)NC12CC3CC(CC(C3)C1)C2 [compound 21]
isoTOP-ABPP ratio (reactivity profile), Q9Y5T5_C205 (USP16 C205 (Q9Y5T5); 500 μm in-vitro ramos_231): 1.6
isoTOP-ABPP ratio (reactivity profile), Q16877_C159 (PFKFB4 C159 (Q16877)): 1.2
isoTOP-ABPP ratio (reactivity profile), Q86UV5_C39 (USP48 C39 (Q86UV5); 500 μm in-vitro ramos): 1.2
isoTOP-ABPP ratio (reactivity profile), Q86UV5_C39 (USP48 C39 (Q86UV5); 500 μm in-vitro ramos_231): 20.0
isoTOP-ABPP ratio (reactivity profile), P50851_C1704 (LRBA C1704 (P50851); 500 μm in-vitro ramos): 1.6

SMILES: O=C(CCl)N1CCOCC1 [compound 22]
isoTOP-ABPP ratio (reactivity profile), Q9Y5T5_C205 (USP16 C205 (Q9Y5T5); 500 μm in-vitro ramos): 1.6

SMILES: CC(C)CCOCCNC(=O)CCl [compound 27]
isoTOP-ABPP ratio (reactivity profile), Q9Y5T5_C205 (USP16 C205 (Q9Y5T5); 500 μm in-vitro ramos): 0.9
isoTOP-ABPP ratio (reactivity profile), Q9Y5T5_C205 (USP16 C205 (Q9Y5T5); 500 μm in-vitro ramos_231): 1.6
isoTOP-ABPP ratio (reactivity profile), O00622_C39 (CYR61 C39 (O00622)): 1.0
isoTOP-ABPP ratio (reactivity profile), Q86UV5_C39 (USP48 C39 (Q86UV5); 500 μm in-vitro ramos_231): 0.8
isoTOP-ABPP ratio (reactivity profile), P50851_C1704 (LRBA C1704 (P50851); 500 μm in-vitro ramos_231): 1.1

The remaining lines, values ahead:

R value (DMSO/fragment) (USP16 C205 (Q9Y5T5); 500 μM, in vitro, MDA-MB-231): 20.0
R value (DMSO/fragment) (USP48 C39 (Q86UV5); 500 μM, invitro, ramos): 7.1
R value (DMSO/fragment) (LRBA C1704 (P50851); 500 μM, invitro, ramos): 3.4
SMILES: COc1ccc2c(c1)CCCN2C(=O)CCl [compound 2]

R value (DMSO/fragment) (USP16 C205 (Q9Y5T5); 500 μM, invitro, ramos): 8.8
R value (DMSO/fragment) (CYR61 C39 (O00622); 500 μM): 4.0
R value (DMSO/fragment) (PFKFB4 C159 (Q16877); 500 μM, invitro, ramos): 12.9
R value (DMSO/fragment) (USP48 C39 (Q86UV5); 500 μM, in vitro, MDA-MB-231): 1.8
R value (DMSO/fragment) (USP48 C39 (Q86UV5); 500 μM, invitro, ramos): 1.5
R value (DMSO/fragment) (LRBA C1704 (P50851); 500 μM, invitro, ramos): 3.6
SMILES: O=C(CCl)Nc1cc(C(F)(F)F)cc(C(F)(F)F)c1 [compound 3]

isoTOP-ABPP ratio (reactivity profile), Q86UV5_C39 (USP48 C39 (Q86UV5); 500 μm in-vitro ramos): 0.7
isoTOP-ABPP ratio (reactivity profile), P50851_C1704 (LRBA C1704 (P50851); 500 μm in-vitro ramos): 1.9
SMILES: C=CC(=O)N(Cc1cccnc1)c1ccc(Oc2ccccc2)c(C(F)(F)F)c1 [compound 15]

isoTOP-ABPP ratio (reactivity profile), Q9Y5T5_C205 (USP16 C205 (Q9Y5T5); 500 μm in-vitro ramos): 1.2
isoTOP-ABPP ratio (reactivity profile), O00622_C39 (CYR61 C39 (O00622)): 4.4
isoTOP-ABPP ratio (reactivity profile), Q16877_C159 (PFKFB4 C159 (Q16877)): 1.0
isoTOP-ABPP ratio (reactivity profile), Q86UV5_C39 (USP48 C39 (Q86UV5); 500 μm in-vitro ramos): 1.3
isoTOP-ABPP ratio (reactivity profile), P50851_C1704 (LRBA C1704 (P50851); 500 μm in-vitro ramos): 3.4
SMILES: N#C/C(=C\c1cc(C(F)(F)F)cc(C(F)(F)F)c1)C(N)=O [compound 23]

isoTOP-ABPP ratio (reactivity profile), Q86UV5_C39 (USP48 C39 (Q86UV5); 500 μm in-vitro ramos): 1.0
isoTOP-ABPP ratio (reactivity profile), P50851_C1704 (LRBA C1704 (P50851); 500 μm in-vitro ramos): 1.3
SMILES: CC(Br)C(=O)Nc1cc(C(F)(F)F)cc(C(F)(F)F)c1 (stereo not drawn) [compound 24]

isoTOP-ABPP ratio (reactivity profile), O00622_C39 (CYR61 C39 (O00622)): 1.0
isoTOP-ABPP ratio (reactivity profile), Q86UV5_C39 (USP48 C39 (Q86UV5); 500 μm in-vitro ramos_231): 1.0
isoTOP-ABPP ratio (reactivity profile), P50851_C1704 (LRBA C1704 (P50851); 500 μm in-vitro ramos_231): 0.8
SMILES: CC(Cl)C(=O)Nc1cc(C(F)(F)F)cc(C(F)(F)F)c1 (stereo not drawn) [compound 25]

From patent publication US10670605B2, “Cysteine reactive probes and uses thereof” (The Scripps Research Institute, priority 2015, dated 2020)
